# Results as given in patent US20240279236A1, “COMPOUNDS AND METHODS OF TREATING TUBERCULOSIS” (Fimbrion Therapeutics, Inc., priority 2021, published 2024).
# Tested on: WT Mtb Erdman strain
# Experiment: Microplate Alamar Blue Assay (MABA), Mtb growth inhibition
# Type: cell-based, Mycobacterium tuberculosis
# Details: Middlebrook 7H9 media, 7 days at 37° C. in 5% CO2
# [1] = Mycobacterium tuberculosis, ERDMAN, 168 h
Compound,IC50,IC50 [1]
"Cc1cc2c(NCCCc3ccc(-c4ccc(OC(F)(F)F)cc4)cc3)nc(N(C)C)nc2s1 [Example 535, N2,N2,6-trimethyl-N4-(3-(4′-(trifluoromethoxy)-[1,1′-biphenyl]-4-yl)propyl)thieno[2,3-d]pyrimidine-2,4-diamine]",4 nM,
"CN(C)c1nc(NCCCc2ccc(-c3ccc(OC(F)(F)F)cc3)cc2)c2ncsc2n1 [Example 536, N5,N5-dimethyl-N7-(3-(4′-(trifluoromethoxy)-[1,1′-biphenyl]-4-yl)propyl)thiazolo[5,4-d]pyrimidine-5,7-diamine]",,88 nM
"Cc1cc2c(NCCCc3ccc(-c4ccc(OC(F)(F)F)cc4)cc3)nc(N)nc2s1 [Example 537, 6-methyl-N4-(3-(4′-(trifluoromethoxy)-[1,1′-biphenyl]-4-yl)propyl)thieno[2,3-d]pyrimidine-2,4-diamine]",,130 nM
"CCN(C)c1nc(NCCCc2ccc(-c3ccc(OC(F)(F)F)cc3)cc2)c2cc(C)sc2n1 [Example 538, N2-ethyl-N2,6-dimethyl-N4-(3-(4′-(trifluoromethoxy)-[1,1′-biphenyl]-4-yl)propyl)thieno[2,3-d]pyrimidine-2,4-diamine]",,100 nM
"CNc1nc(NCCCc2ccc(-c3ccc(N(C)C)cc3)cc2)c2cc(C)sc2n1 [Example 539, N4-(3-(4′-(dimethylamino)-[1,1′-biphenyl]-4-yl)propyl)-N2,6-dimethylthieno[2,3-d]pyrimidine-2,4-diamine]",,68 nM
"CCOc1nc(NCCCc2ccccc2)c2ccsc2n1 [Example 542, 2-ethoxy-N-(3-phenylpropyl)thieno[2,3-d]pyrimidin-4-amine]",,150 nM
"CCOc1nc(NCCCc2ccccc2)c2cc(C)sc2n1 [Example 543, 2-ethoxy-6-methyl-N-(3-phenylpropyl)thieno[2,3-d]pyrimidin-4-amine]",,130 nM
"COc1nc(NCCCc2ccc(-c3ccc(OC(F)(F)F)cc3)cc2)c2cc(C)sc2n1 [Example 545, 2-methoxy-6-methyl-N-(3-(4′-(trifluoromethoxy)-[1,1′-biphenyl]-4-yl)propyl)thieno[2,3-d]pyrimidin-4-amine]",,10 nM
"CCOc1nc(NCCCc2ccc(-c3ccc(OC(F)(F)F)cc3)cc2)c2cc(C)sc2n1 [Example 546, 2-ethoxy-6-methyl-N-(3-(4′-(trifluoromethoxy)-[1,1′-biphenyl]-4-yl)propyl)thieno[2,3-d]pyrimidin-4-amine]",,15 nM
"COc1nc(NCCCc2ccc(-c3ccc(OC(F)(F)F)cc3)cc2)c2nc(C)sc2n1 [Example 547, 5-methoxy-2-methyl-N-(3-[4′-(trifluoromethoxy)-[1,1′-biphenyl]-4-yl]propyl)-[1,3]thiazolo[5,4-d]pyrimidin-7-amine]",,33 nM
"Cc1cc2c(NCCCc3ccc(-c4ccc([N+](=O)[O-])cc4)cc3)nc(N3CCCC3)nc2s1 [Example 549, 6-methyl-N-(3-(4′-nitro-[1,1′-biphenyl]-4-yl)propyl)-2-(pyrrolidin-1-yl)thieno[2,3-d]pyrimidin-4-amine]",,29 nM
"Cc1cc2c(NCCCc3ccc(-c4ccc(F)nc4)cc3)nc(N(C)C)nc2s1 [Example 555, N4-(3-[4-(6-fluoropyridin-3-yl)phenyl]propyl)-N2,N2,6-trimethylthieno[2,3-d]pyrimidine-2,4-diamine]",,29 nM
"Cc1cc2c(NCCCc3ccc(-c4ccc(F)cc4)cc3)nc(N(C)C)nc2s1 [Example 556, N4-(3-(4′-fluoro-[1,1′-biphenyl]-4-yl)propyl)-N2,N2,6-trimethylthieno[2,3-d]pyrimidine-2,4-diamine]",,< 4 nM
"Cc1cc2c(NCCCc3ccc(-c4ccc(C(F)(F)F)cn4)cc3)nc(N(C)C)nc2s1 [Example 557, N2,N2,6-trimethyl-N4-(3-(4-[5-(trifluoromethyl)pyridin-2-yl]phenyl)propyl)thieno[2,3-d]pyrimidine-2,4-diamine]",,< 4 nM
"Cc1cc2c(NCCCc3ccc(-c4ncc(C(F)(F)F)cn4)cc3)nc(N(C)C)nc2s1 [Example 558, N2,N2,6-trimethyl-N4-(3-(4-[5-(trifluoromethyl)pyrimidin-2-yl]phenyl)propyl)thieno[2,3-d]pyrimidine-2,4-diamine]",,< 4 nM
"Cc1cnc(-c2ccc(CCCNc3nc(N(C)C)nc4sc(C)cc34)cc2)cn1 [Example 559, N2,N2,6-trimethyl-N4-(3-[4-(5-methylpyrazin-2-yl)phenyl]propyl)thieno[2,3-d]pyrimidine-2,4-diamine]",,11 nM
"CCOc1nc(NCCCc2ccc(-c3cnc(C(F)(F)F)cn3)cc2)c2cc(C)sc2n1 [Example 560, 2-ethoxy-6-methyl-N-(3-(4-[5-(trifluoromethyl)pyrazin-2-yl]phenyl)propyl)thieno[2,3-d]pyrimidin-4-amine]",,50 nM
"COc1nc(NCCCc2ccc(-c3cnc(F)cn3)cc2)c2cc(C)sc2n1 [Example 561, N-(3-[4-(5-fluoropyrazin-2-yl)phenyl]propyl)-2-methoxy-6-methylthieno[2,3-d]pyrimidin-4-amine]",,31 nM
"CCc1nc(NCCCc2c[nH]nn2)c2cc(C)sc2n1 [Example 562, N-(3-(1H-1,2,3-triazol-4-yl)propyl)-2-ethyl-6-methylthieno[2,3-d]pyrimidin-4-amine]",,> 10000 nM

Compound,IC50,IC50 [1]
"CCc1nc(NCCCc2cn(-c3ccccc3)nn2)c2cc(C)sc2n1 [Example 563, 2-ethyl-6-methyl-N-(3-(1-phenyl-1H-1,2,3-triazol-4-yl)propyl)thieno[2,3-d]pyrimidin-4-amine]",,4700 nM
"CNC(=O)c1nc(NCCCc2ccc(OC(F)(F)F)cc2)c2cc(C)sc2n1 [Example 564, N,6-dimethyl-4-((3-(4-(trifluoromethoxy)phenyl)propyl)amino)thieno[2,3-d]pyrimidine-2-carboxamide]",,1200 nM
"Cc1cc2c(NCCCc3ccc(OC(F)(F)F)cc3)nc(C(=O)NC3CC3)nc2s1 [Example 565, N-cyclopropyl-6-methyl-4-((3-(4-(trifluoromethoxy)phenyl)propyl)amino)thieno[2,3-d]pyrimidine-2-carboxamide]",,4300 nM
"Cc1cc2c(N[C@H]3C[C@@H]3c3ccc(F)c(F)c3)nc(-c3ccc[nH]3)nc2s1 [Example 566, N-((1S,2R)-2-(3,4-difluorophenyl)cyclopropyl)-6-methyl-2-(1H-pyrrol-2-yl)thieno[2,3-d]pyrimidin-4-amine]",,1600 nM
"Cc1cc2c(NCCCc3ccc(-c4ccc(OC(F)(F)F)cc4)cc3)nc(-c3ccc[nH]3)nc2s1 [Example 567, 6-methyl-2-(1H-pyrrol-2-yl)-N-(3-(4′-(trifluoromethoxy)-[1,1′-biphenyl]-4-yl)propyl)thieno[2,3-d]pyrimidin-4-amine]",,< 4 nM
"Cc1cc2c(NCCCc3ccc(-c4ccc(OC(F)(F)F)cc4)cc3)nc(-c3cc[nH]c3)nc2s1 [Example 568, 6-methyl-2-(1H-pyrrol-3-yl)-N-(3-(4′-(trifluoromethoxy)-[1,1′-biphenyl]-4-yl)propyl)thieno[2,3-d]pyrimidin-4-amine]",,> 1000 nM
"Cc1cc2c(NCCCc3ccc(-c4ccc([N+](=O)[O-])cc4)cc3)nc(-c3cc[nH]c3)nc2s1 [Example 569, 6-methyl-N-(3-(4′-nitro-[1,1′-biphenyl]-4-yl)propyl)-2-(1H-pyrrol-3-yl)thieno[2,3-d]pyrimidin-4-amine]",,70 nM
"Cc1cc2c(NCCCc3ccc(-c4ccc(C(F)(F)F)cn4)cc3)nc(-c3cc[nH]c3)nc2s1 [Example 570, 6-methyl-2-(1H-pyrrol-3-yl)-N-(3-(4-(5-(trifluoromethyl)pyridin-2-yl)phenyl)propyl)thieno[2,3-d]pyrimidin-4-amine]",,230 nM
"FC(F)(F)Oc1ccc(-c2ccc(CCCNc3nc(-c4ccc[nH]4)nc4sccc34)cc2)cc1 [Example 574, 2-(1H-pyrrol-2-yl)-N-(3-(4′-(trifluoromethoxy)-[1,1′-biphenyl]-4-yl)propyl)thieno[2,3-d]pyrimidin-4-amine]",,> 520 nM
"Cc1cc2c(NCCCc3ccc(-c4cnc(N5CCCC5)cn4)cc3)nc(N3CCCC3)nc2s1 [Example 575, 6-methyl-2-(pyrrolidin-1-yl)-N-(3-(4-(5-(pyrrolidin-1-yl)pyrazin-2-yl)phenyl)propyl)thieno[2,3-d]pyrimidin-4-amine]",,91 nM
"CCc1nc(NC(=O)CCCc2ccccc2)c2cc(C)sc2n1 [Example 576, N-(2-ethyl-6-methylthieno[2,3-d]pyrimidin-4-yl)-4-phenylbutanamide]",,3400 nM
"Cc1cc2c(NC(=O)CCc3ccccc3)nc(-c3ccoc3)nc2s1 [Example 577, N-(2-(furan-3-yl)-6-methylthieno[2,3-d]pyrimidin-4-yl)-3-phenylpropanamide]",,71 nM
"Cc1cc2c(NCCCc3ccccc3)nc(S(C)(=O)=O)nc2s1 [Example 578, 6-methyl-2-(methylsulfonyl)-N-(3-phenylpropyl)thieno[2,3-d]pyrimidin-4-amine]",,4000 nM
"Cc1cc2c(NCCCc3ccccc3)nc(C(=O)O)nc2s1 [Example 579, 6-methyl-4-((3-phenylpropyl)amino)thieno[2,3-d]pyrimidine-2-carboxylic acid]",,> 10000 nM
"Cc1cc2c(NCCCc3ccccc3)nc(OC(F)F)nc2s1 [Example 580, 2-(difluoromethoxy)-6-methyl-N-(3-phenylpropyl)thieno[2,3-d]pyrimidin-4-amine]",,> 10000 nM
"Cc1cc2c(NCCCc3ccccc3)nc([S+](C)[O-])nc2s1 (centres unmarked) [Example 581, 6-methyl-2-(methylsulfinyl)-N-(3-phenylpropyl)thieno[2,3-d]pyrimidin-4-amine]",,1300 nM
"C=C(C)c1nc(NCCCc2ccccc2)c2cc(C)sc2n1 [Example 582, 6-methyl-N-(3-phenylpropyl)-2-(prop-1-en-2-yl)thieno[2,3-d]pyrimidin-4-amine]",,170 nM
"Cc1nc(NCCCc2ccccc2)c2nc(Cl)sc2n1 [Example 583, 2-chloro-5-methyl-N-(3-phenylpropyl)thiazolo[5,4-d]pyrimidin-7-amine]",,5800 nM
"Cc1nc(NCCCc2ccccc2)c2ncsc2n1 [Example 584, 5-methyl-N-(3-phenylpropyl)thiazolo[5,4-d]pyrimidin-7-amine]",,> 10000 nM
